# Patent US12279621B1, “Insect neuropeptides 3” (Solasta Bio Limited, priority 2023, dated 2025)
# System: Spodoptera frugiperda
# Assay: Lepidoptera artificial diet assay
# Assay type: in vivo
# Details: unformulated peptide, final concentration 1×10^−4 M in diet, one L1 larva per cell, n=10, 168 hrs; compared to negative control vehicle and DDT
# Protocol: One larva was assayed per cell. (n=10). Frontier Lepidoptera artificial diet was made up by preparing agar at 1% and then mixing it with artificial diet powder. Peptide solution was aliquoted in 10 cells and diet poured straight onto it. The final concentration of the peptide was 1×10^−4 M, and each peptide was aliquoted in 10 cells. Once the diet solidified and cooled down, one L1 larvae was infested in each cell. The trays were sealed with heat and let larva were allowed to develop for 168 hrs. Finally, pupation and mortality were scored for. Lepidoptera artificial diet assays were performed with SB-P-80, and compared to a negative control vehicle and the insecticide dichlorodiphenyltrichloroethane (DDT).
substance,measurement,value
"[Hy]-NADEDQQQSVDFTPRL-[NH2] (H-NADEDQQQSVDFTPRL-NH2) [SB-P-80, pyrokinin peptide according to the invention]",activity (pupation and mortality scored) in lepidoptera artificial diet assay,much higher activity
